Species on record: Rattus norvegicus
Assay: DrugMatrix - Regimen: Daily Repeat
Type: toxicity, organism-based, Sprague-Dawley
Set-up: regimen Daily Repeat, gender Male, age 6-8 weeks
Conditions: in vivo, po, 30 mg/kg, route oral GAVAGE, dose level Low, vehicle .5 % CMC; for ABSOLUTE BASOPHIL / ABSOLUTE EOSINOPHIL / ABSOLUTE LYMPHOCYTE / ABSOLUTE MONOCYTE / ABSOLUTE SEGMENTED NEUTROPHIL / BASOPHIL / EOSINOPHIL / ERYTHROCYTE COUNT / HEMATOCRIT / HEMOGLOBIN / LEUKOCYTE COUNT / LYMPHOCYTE / MEAN CORPUSCULAR HEMOGLOBIN / MEAN CORPUSCULAR HEMOGLOBIN CONCENTRATION / MEAN CORPUSCULAR VOLUME / MONOCYTE / NEUTROPHIL / NUCLEATED RED BLOOD CELLS / PLATELET COUNT: tissue Blood; for ALANINE AMINOTRANSFERASE / ALBUMIN / ALKALINE PHOSPHATASE / ASPARTATE AMINOTRANSFERASE / BLOOD UREA NITROGEN / CARBON DIOXIDE / CHLORIDE / CHOLESTEROL / CREATINE PHOSPHOKINASE / CREATININE / GLUCOSE / LACTATE DEHYDROGENASE / LIPASE / PHOSPHORUS / POTASSIUM / SODIUM / TOTAL BILIRUBIN / TOTAL PROTEIN / URIC ACID: tissue Plasma

## CC(=O)CCCCn1c(=O)c2c(ncn2C)n(C)c1=O [PENTOXIFYLLINE]
72 h, time 3 day
  ABSOLUTE BASOPHIL: 0 CELLS/uL
  ABSOLUTE EOSINOPHIL: 54.67 CELLS/uL
  ABSOLUTE LYMPHOCYTE: 16028 CELLS/uL
  ABSOLUTE MONOCYTE: 106.67 CELLS/uL
  ABSOLUTE SEGMENTED NEUTROPHIL: 1677.33 CELLS/uL
  BASOPHIL: 0%
  EOSINOPHIL: 0.33%
  ERYTHROCYTE COUNT: 4.93 x10E6/uL
  HEMATOCRIT: 32.23%
  HEMOGLOBIN: 12.6 G/DL
  LEUKOCYTE COUNT: 17.87 x10E3/uL
  LYMPHOCYTE: 89.67%
  MEAN CORPUSCULAR HEMOGLOBIN: 25.6 pg
  MEAN CORPUSCULAR HEMOGLOBIN CONCENTRATION: 39.1 G/DL
  MEAN CORPUSCULAR VOLUME: 65.47 fL
  MONOCYTE: 0.67%
  NEUTROPHIL: 9.33%
  NUCLEATED RED BLOOD CELLS: 0.33 /100WBC
  PLATELET COUNT: 1350 x10E3/uL
  ALANINE AMINOTRANSFERASE: 62.33 u/L
  ALBUMIN: 4.27 G/DL
  ALKALINE PHOSPHATASE: 546.33 u/L
  ASPARTATE AMINOTRANSFERASE: 100.33 u/L
  BLOOD UREA NITROGEN: 17.33 mg/dL
  CARBON DIOXIDE: 24.67 mmol/L
  CHLORIDE: 107.67 MEQ/L
  CHOLESTEROL: 71 mg/dL
  CREATINE PHOSPHOKINASE: 318.67 u/L
  CREATININE: 0.21 mg/dL
  GLUCOSE: 160.67 mg/dL
  LACTATE DEHYDROGENASE: 438.67 u/L
  LIPASE: 10 u/L
  PHOSPHORUS: 13.7 mg/dL
  POTASSIUM: 6.67 MEQ/L
  SODIUM: 149.33 MEQ/L
  TOTAL BILIRUBIN: 0.2 mg/dL
  TOTAL PROTEIN: 5.87 G/DL
  URIC ACID: 1.47 mg/dL
120 h, time 5 day
  ABSOLUTE BASOPHIL: 0 CELLS/uL
  ABSOLUTE EOSINOPHIL: 0 CELLS/uL
  ABSOLUTE LYMPHOCYTE: 10793.33 CELLS/uL
  ABSOLUTE MONOCYTE: 47.67 CELLS/uL
  ABSOLUTE SEGMENTED NEUTROPHIL: 492.33 CELLS/uL
  BASOPHIL: 0%
  EOSINOPHIL: 0%
  ERYTHROCYTE COUNT: 5.84 x10E6/uL
  HEMATOCRIT: 36.73%
  HEMOGLOBIN: 13.57 G/DL
  LEUKOCYTE COUNT: 11.33 x10E3/uL
  LYMPHOCYTE: 95.33%
  MEAN CORPUSCULAR HEMOGLOBIN: 23.23 pg
  MEAN CORPUSCULAR HEMOGLOBIN CONCENTRATION: 36.97 G/DL
  MEAN CORPUSCULAR VOLUME: 62.93 fL
  MONOCYTE: 0.33%
  NEUTROPHIL: 4.33%
  NUCLEATED RED BLOOD CELLS: 0.33 /100WBC
  PLATELET COUNT: 1319.67 x10E3/uL
  ALANINE AMINOTRANSFERASE: 45 u/L
  ALBUMIN: 4.5 G/DL
  ALKALINE PHOSPHATASE: 368 u/L
  ASPARTATE AMINOTRANSFERASE: 79.67 u/L
  BLOOD UREA NITROGEN: 18.33 mg/dL
  CARBON DIOXIDE: 23 mmol/L
  CHLORIDE: 105.33 MEQ/L
  CHOLESTEROL: 65 mg/dL
  CREATINE PHOSPHOKINASE: 458.33 u/L
  CREATININE: 0.21 mg/dL
  GLUCOSE: 166 mg/dL
  LACTATE DEHYDROGENASE: 154.67 u/L
  LIPASE: 10.33 u/L
  PHOSPHORUS: 13.7 mg/dL
  POTASSIUM: 7.08 MEQ/L
  SODIUM: 148.67 MEQ/L
  TOTAL BILIRUBIN: 0.2 mg/dL
  TOTAL PROTEIN: 6.43 G/DL
  URIC ACID: 2.37 mg/dL
